In PubChem BioAssay AID248 (DTP/NCI, 2004):
Where “and” joins values, the source holds several entries; their conditions need not be identical. Equal entries are not always repeated. Toxic doses and inconclusive results are not listed. Cut-off read from the data, not from the text of the source: active = T/C of 150% or more; inactive = T/C below 125%.

Test system: L1210 leukemia ip in BDF1 mice, survival T/C
Assay: NCI In Vivo Anticancer Drug Screen. Data for tumor model L1210 Leukemia (intraperitoneal) in B6D2F1 (BDF1) mice
Settings: endpoint: mean survival time, higher = longer survival
Method in brief: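 Transplantable tumor model; survival measured in treated vs vehicle control mice. Value = treated/control.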

[1] = dose: 100.0 mg/kg/injection, schedule: Q01DX009 (ip), vehicle: saline with Tween-80
[2] = dose: 200.0 mg/kg/injection, schedule: Q01DX009 (ip), vehicle: saline with Tween-80
[3] = dose: 400.0 mg/kg/injection, schedule: Q01DX009 (ip), vehicle: saline with Tween-80
[4] = dose: 100.0 mg/kg/injection, schedule: Q04DX003 (ip), vehicle: saline
[5] = dose: 100.0 mg/kg/injection, schedule: Q04DX003 (ip), vehicle: Klucel (hydroxypropylcellulose) (HPC)
[6] = dose: 200.0 mg/kg/injection, schedule: Q04DX003 (ip), vehicle: Klucel (hydroxypropylcellulose) (HPC)
[7] = dose: 400.0 mg/kg/injection, schedule: Q04DX003 (ip), vehicle: Klucel (hydroxypropylcellulose) (HPC)
[8] = dose: 200.0 mg/kg/injection, schedule: Q04DX003 (ip), vehicle: saline with Tween-80
[9] = dose: 400.0 mg/kg/injection, schedule: Q04DX003 (ip), vehicle: saline with Tween-80
[10] = dose: 100.0 mg/kg/injection, schedule: Q01DX009 (ip), vehicle: Klucel (hydroxypropylcellulose) (HPC)
[11] = dose: 200.0 mg/kg/injection, schedule: Q01DX009 (ip), vehicle: Klucel (hydroxypropylcellulose) (HPC)
[12] = dose: 400.0 mg/kg/injection, schedule: Q01DX009 (ip), vehicle: Klucel (hydroxypropylcellulose) (HPC)

Measured: T/C

Cc1ccc(C(Br)S(=O)(=O)c2ccccc2)cc1 (stereo not drawn)
inactive: dose: 100.0 mg/kg/injection, schedule: Q04DX002 (ip), vehicle: Klucel (hydroxypropylcellulose) (HPC) 97 % of control | dose: 200.0 mg/kg/injection, schedule: Q04DX002 (ip), vehicle: Klucel (hydroxypropylcellulose) (HPC) 86 % of control | dose: 400.0 mg/kg/injection, schedule: Q04DX002 (ip), vehicle: Klucel (hydroxypropylcellulose) (HPC) 111 % of control

CCOC(=O)CNC(=O)OCCOc1ccccc1Cl
inactive: [1] 94 % of control | [2] 98 % of control | [3] 100 % of control

CCCCCCCCCCCCn1c(C)nc2ccccc21
inactive: dose: 2.4 mg/kg/injection, schedule: Q03HX024 (ip), vehicle: saline 94 % of control | dose: 3.6 mg/kg/injection, schedule: Q03HX024 (ip), vehicle: saline 91 % of control | dose: 5.0 mg/kg/injection, schedule: Q01DX001 (ip), vehicle: saline 104 % of control | dose: 5.0 mg/kg/injection, schedule: Q04DX003 (ip), vehicle: carboxymethylcellulose (CMC) 105 % of control | dose: 5.4 mg/kg/injection, schedule: Q03HX024 (ip), vehicle: saline 97 % of control | dose: 8.0 mg/kg/injection, schedule: Q03HX024 (ip), vehicle: saline 96 % of control | dose: 10.0 mg/kg/injection, schedule: Q01DX001 (ip), vehicle: saline 101 % of control | dose: 10.0 mg/kg/injection, schedule: Q04DX003 (ip), vehicle: carboxymethylcellulose (CMC) 106 % of control | dose: 12.0 mg/kg/injection, schedule: Q01DX009 (ip), vehicle: saline 116 % of control | dose: 12.0 mg/kg/injection, schedule: Q03HX024 (ip), vehicle: saline 104 % of control | dose: 18.0 mg/kg/injection, schedule: Q01DX009 (ip), vehicle: saline 118 % of control | dose: 20.0 mg/kg/injection, schedule: Q01DX001 (ip), vehicle: saline 104 % of control | dose: 20.0 mg/kg/injection, schedule: Q04DX003 (ip), vehicle: carboxymethylcellulose (CMC) 108 % of control | dose: 24.0 mg/kg/injection, schedule: Q01DX001 (ip), vehicle: saline 106 % of control | dose: 24.0 mg/kg/injection, schedule: Q04DX003 (ip), vehicle: saline 113 % of control | dose: 27.0 mg/kg/injection, schedule: Q01DX009 (ip), vehicle: saline 113 % of control | dose: 36.0 mg/kg/injection, schedule: Q01DX001 (ip), vehicle: saline 105 % of control | dose: 36.0 mg/kg/injection, schedule: Q04DX003 (ip), vehicle: saline 104 % of control | dose: 40.0 mg/kg/injection, schedule: Q01DX001 (ip), vehicle: saline 112 % of control

CN1CCCCC1CCN1c2ccccc2Sc2ccc(S(C)=O)cc21 (stereo not drawn)
inactive: dose: 6.25 mg/kg/injection, schedule: Q01DX009 (ip), vehicle: saline 97 % of control | dose: 12.5 mg/kg/injection, schedule: Q01DX009 (ip), vehicle: saline 98 % of control and 101 % of control and 108 % of control | dose: 25.0 mg/kg/injection, schedule: Q01DX009 (ip), vehicle: saline 100 % of control and 101 % of control (2×) | dose: 25.0 mg/kg/injection, schedule: Q04DX003 (ip), vehicle: saline 112 % of control | dose: 50.0 mg/kg/injection, schedule: Q01DX009 (ip), vehicle: saline 119 % of control | dose: 50.0 mg/kg/injection, schedule: Q04DX003 (ip), vehicle: saline 115 % of control | [4] 105 % of control

Nc1nc2nc(N=Nc3ccc(S(N)(=O)=O)cc3)[nH]c2c(=O)[nH]1
inactive: [5] 96 % of control | [6] 93 % of control | [7] 99 % of control

C#CC(OC(=O)NC(C(=O)OC)C(C)C)(c1ccccc1)c1ccccc1 (stereo not drawn)
inactive: dose: 50.0 mg/kg/injection, schedule: Q04DX002 (ip), vehicle: saline with Tween-80 100 % of control | dose: 100.0 mg/kg/injection, schedule: Q04DX002 (ip), vehicle: saline with Tween-80 105 % of control and 114 % of control | dose: 200.0 mg/kg/injection, schedule: Q04DX002 (ip), vehicle: saline with Tween-80 122 % of control

O=[N+]([O-])c1ccc[nH]1
inactive: [4] 98 % of control

COC1OC2COC(c3ccccc3)OC2C(=O)C1OS(=O)(=O)c1ccc(C)cc1 (stereo not drawn)
inactive: [8] 89 % of control | [9] 86 % of control

O=C(N1CCN=C1C(Cl)(Cl)Cl)C(Cl)(Cl)Cl
inactive: dose: 100.0 mg/kg/injection, schedule: Q04DX003 (ip), vehicle: saline with Tween-80 100 % of control | [8] 102 % of control | [9] 102 % of control

CCCCC(=O)N1CCCCC1
inactive: dose: 50.0 mg/kg/injection, schedule: Q01DX001 (ip), vehicle: carboxymethylcellulose (CMC) 104 % of control | dose: 50.0 mg/kg/injection, schedule: Q01DX009 (ip), vehicle: carboxymethylcellulose (CMC) 94 % of control and 97 % of control | dose: 50.0 mg/kg/injection, schedule: Q04DX003 (ip), vehicle: carboxymethylcellulose (CMC) 102 % of control | dose: 100.0 mg/kg/injection, schedule: Q01DX001 (ip), vehicle: carboxymethylcellulose (CMC) 106 % of control | dose: 100.0 mg/kg/injection, schedule: Q01DX009 (ip), vehicle: carboxymethylcellulose (CMC) 94 % of control and 102 % of control | dose: 100.0 mg/kg/injection, schedule: Q04DX002 (ip), vehicle: carboxymethylcellulose (CMC) 98 % of control | dose: 100.0 mg/kg/injection, schedule: Q04DX003 (ip), vehicle: carboxymethylcellulose (CMC) 96 % of control | dose: 200.0 mg/kg/injection, schedule: Q01DX001 (ip), vehicle: carboxymethylcellulose (CMC) 101 % of control | dose: 200.0 mg/kg/injection, schedule: Q01DX009 (ip), vehicle: carboxymethylcellulose (CMC) 96 % of control and 87 % of control | dose: 200.0 mg/kg/injection, schedule: Q04DX002 (ip), vehicle: carboxymethylcellulose (CMC) 91 % of control | dose: 200.0 mg/kg/injection, schedule: Q04DX003 (ip), vehicle: carboxymethylcellulose (CMC) 97 % of control

O=c1ccc2ccccc2[nH]1.[Mn]
inactive: dose: 5.0 mg/kg/injection, schedule: Q01DX001 (ip), vehicle: carboxymethylcellulose (CMC) 95 % of control | dose: 10.0 mg/kg/injection, schedule: Q01DX001 (ip), vehicle: carboxymethylcellulose (CMC) 95 % of control | dose: 20.0 mg/kg/injection, schedule: Q01DX001 (ip), vehicle: carboxymethylcellulose (CMC) 97 % of control | dose: 40.0 mg/kg/injection, schedule: Q01DX001 (ip), vehicle: carboxymethylcellulose (CMC) 97 % of control

CC1c2cccc(Cl)c2C(=O)c2c(Cl)cccc21
inactive: [10] 102 % of control | [5] 108 % of control | [11] 102 % of control | [6] 102 % of control | [12] 110 % of control | [7] 96 % of control

CCOC(=O)Cn1c(=O)c2ccccc2c2cc([N+](=O)[O-])ccc21
inactive: [5] 95 % of control | [6] 97 % of control | [7] 86 % of control

COc1ccc(OC(=O)Nc2ccccc2OC)cc1
inactive: [10] 97 % of control | [5] 98 % of control | [11] 100 % of control | [6] 96 % of control | [12] 95 % of control | [7] 95 % of control

CCC(/C=C1\Sc2ccc(C)cc2N1CC)=C\c1sc2ccc(OC)cc2[n+]1CC
inactive: dose: 2.0 mg/kg/injection, schedule: Q01DX001 (ip), vehicle: other 106 % of control | dose: 4.0 mg/kg/injection, schedule: Q01DX001 (ip), vehicle: other 105 % of control

CCCCNC(C)(C)C1(c2ccc(Cl)cc2)SSC(c2ccc(Cl)cc2)(C(C)(C)NCCCC)SS1 (stereo not drawn)
inactive: [10] 99 % of control | [5] 93 % of control | [11] 99 % of control | [6] 101 % of control | [7] 97 % of control

CCCCCCCCCCCCN(C)S(=O)(=O)c1ccc(Cl)c(N)c1
inactive: [1] 95 % of control | [5] 91 % of control | [2] 89 % of control | [6] 108 % of control | [3] 93 % of control | [7] 89 % of control

CC(=O)OCC(COC(C)=O)OC(C)=O
inactive: dose: 100.0 mg/kg/injection, schedule: Q04DX002 (ip), vehicle: other 98 % of control | dose: 200.0 mg/kg/injection, schedule: Q04DX002 (ip), vehicle: other 98 % of control | dose: 400.0 mg/kg/injection, schedule: Q04DX002 (ip), vehicle: other 103 % of control

C=CC(C)=O.C=CC(C)=O.C=CC(C)=O.[W]
inactive: dose: 100.0 mg/kg/injection, schedule: Q04DX003 (ip), vehicle: other 94 % of control | dose: 200.0 mg/kg/injection, schedule: Q04DX003 (ip), vehicle: other 92 % of control | dose: 400.0 mg/kg/injection, schedule: Q04DX003 (ip), vehicle: other 97 % of control
